EP2269600A1, “Treatment of sleep disorders using eplivanserin in COPD patients” (Sanofi-Aventis, priority 2009, dated 2011)

Assays:
[1] = test system: patients with chronic (primary) insomnia characterized by sleep maintenance difficulties; assay: Phase 3 study EFC6220: polysomnography (PSG) recordings, 6 weeks, placebo-controlled; assay type: in vivo
From the text: (§1) The Phase 3 program of development of eplivanserin in the treatment of patients with chronic (primary) insomnia characterized by sleep maintenance difficulties consisted of 3 randomized, double-blind (DB), placebo-controlled, efficacy and safety studies designed to assess the efficacy of eplivanserin on sleep maintenance either using polysomnography (PSG) recordings (6-week study EFC6220) or patient-reported outcome (12-week studies LTE6217 and LTE6262) collected daily on sleep questionnaires. They were all double-blind (DB), randomized, placebo-controlled studies. In all studies, treatment period was preceded by a one week, placebo run-in period, designed to check selection criteria for insomnia based on patient reported sleep parameters collected on the daily sleep questionnaires (Studies LTE6217, and LTE6262) or based on PSG recordings during two screening nights in a sleep laboratory (Study EFC6220). Treatment period was followed by a placebo run-out period of 2 weeks designed to assess the effect of abrupt treatment discontinuation. Study EFC6220 was designed to measure the pharmacodynamic activity of eplivanserin on sleep maintenance using PSG recordings in a sleep laboratory. Polysomnograms were recorded in standard conditions during 8 hours in bed. Studies LTE6217 and LTE6262 measured the efficacy of eplivanserin in real life conditions of use at home by collecting daily sleep parameters reported by patients through an Interactive Voice Response System (IVRS).

[2] = test system: patients with chronic (primary) insomnia characterized by sleep maintenance difficulties; assay: Phase 3 studies LTE6217 and LTE6262: patient-reported sleep parameters, 12 weeks, placebo-controlled; assay type: in vivo
From the text: as §1

[3] = test system: patients with mild to moderate COPD; assay: COPD phase I study: overnight pulse oximetry (oxygen saturation); assay type: in vivo
Method: (§2) The primary objective of this phase I study was to evaluate the pharmacodynamic (PD) effects of eplivanserin 15 mg single dose versus placebo (P) on respiratory function measured by mean overnight oxygen saturation (SaO2) in patients with mild to moderate COPD. Recorded PD parameters were: • Pulse oximetry continuously recorded overnight, with 02 saturation in %, • Pulmonary function tests (PFTs): spirometry [measuring forced vital capacity (FVC), forced expiratory volume (FEV), peak […] flow rate (PEFR), forced […] flow (FEF)] and plethysmography [evaluating airways resistance and conductance], • Capillary blood gases, • PSG with apnea /hypopnea episodes, sleep global sleep parameters and sleep architecture, • Leeds Sleep Evaluation Questionnaire (LSEQ) and Bond & Lader VAS. Safety and pharmacokinetic parameters were also assessed.
(§3) The study was a single-centre, double-blind, randomized, 2-way crossover, placebo-controlled crossover study with 14 day washout: 15 mg single-dose of eplivanserin (E) vs. placebo (P). Included patients were displaying mild to moderate chronic obstructive pulmonary disease (COPD). The primary end-point was the pulmonary function (02 saturation over the entire night). 28 evaluable patients have been evaluated (COPD severity (FEV1) 50% mild / 50% moderate; Gender: 46.4% M, 53.6% F)

[4] = test system: patients with mild to moderate COPD; assay: COPD phase I study: spirometry; assay type: in vivo; settings: Eplivanserin 15 mg single dose minus Placebo
Method: as §2, §3

[5] = test system: patients with mild to moderate COPD; assay: COPD phase I study: plethysmography; assay type: in vivo
Method: as §2, §3

[6] = test system: patients with mild to moderate COPD; assay: COPD phase I study: capillary blood gases; assay type: in vivo; settings: 15 mg single dose
Method: as §2, §3

[7] = test system: patients with mild to moderate COPD; assay: COPD phase I study: PSG (apnea/hypopnea episodes, sleep parameters); assay type: in vivo; settings: 15 mg single dose
Method: as §2, §3

[8] = test system: patients with mild to moderate COPD; assay: COPD phase I study: Leeds Sleep Evaluation Questionnaire and Bond & Lader VAS; assay type: in vivo; settings: 15 mg single dose
Method: as §2, §3

[9] = test system: patients with mild to moderate COPD; assay: COPD phase I study: safety and tolerability; assay type: in vivo; settings: for safety / tolerability: 15 mg single dose, mild or moderate COPD
Method: as §2, §3

[10] = cited from earlier work
[11] = 5 mg/day, after 6 and 12 weeks of treatment

## CN(C)CCO/N=C(/C=C/c1ccc(O)cc1)c1ccccc1F [Eplivanserin, (1Z, 2E)-1-(2-fluorophenyl)-3-(4-hydroxyphenyl)-prop-2-en-1-one-O-(2-dimethylaminoethyl)oxime]
[1]; 5 mg/day compared with placebo
  Stage 1: decrease of Stage 1
  percentage of time spent in sleep Stages 3&4 (SWS or deep sleep): increased
[1]; Week 3 and Week 6, difference with placebo not statistically significant at Week 6
  PSG-WASO: decreasing PSG-WASO at Week 3 and Week 6
[1]; compared to placebo
  number of brief awakenings (<1 min): decreased
[1]; eplivanserin 5 mg
  sleep onset (PSG-LPS and pr-SOL): did not affect sleep onset
[1]; eplivanserin 5 mg, Week 3, p<0.0001
  PSG-NAW (LS mean): -1.74
[1]; eplivanserin 5 mg, Week 3 and Week 6
  pr-NAW: decrease of pr-NAW
[1]; eplivanserin 5 mg, Week 6, p<0.0001
  PSG-NAW (LS mean): -1.82
[1]; in vivo
  QoS: improved
  REM sleep: not affected
  SWS/WASO + Stage 1 index: increase
[2]; 5 mg/day
  effect on sleep maintenance (pr-WASO), onset and persistence: observed from Day 1 and persisted up to 1 year of treatment
[2]; [11]
  mean pr-NAW: reducing
  pr-TST: increasing
  pr-WASO: consistently and significantly decreasing
[2]; after 6 and 12 weeks of treatment
  Quality of Sleep and Refreshing Quality of Sleep: improved
[2]; compared with placebo, reported by insomniac patients
  "sleepiness in the morning" and "ability to concentrate": significantly favorable effect
[2]; human, in vivo
  sleep onset: did not affect sleep onset
[2]; safety analyses
  potential for residual effects (next-day impairment): devoid of next-day impairment
[3]; Eplivanserin 15 mg single dose minus Placebo, P-value 0.2499
  SaO2 (%) during Time in bed, treatment difference LS mean: -0.30%
[3]; eplivanserin 15 mg single dose, finger pulse oximetry
  Mean oxygen saturation over the entire night (mean ± SD): 93.4 % ± 1.66
[3]; single dose 15 mg vs placebo
  SaO2 (%) during the sleep stages (stage 1, 2, SWS, REM, wake): no effect
[4]; P-value 0.1411
  Forced vital capacity, treatment difference LS mean: -0.12 L
[4]; P-value 0.5289
  Forced expiratory volume, treatment difference LS mean: -0.03 L
[4]; P-value 0.6683
  Peak expiratory flow, treatment difference LS mean: -0.05 L/S
[5]; 15 mg single dose vs placebo
  airways resistance and conductance in each patient's subgroup (mild, moderate): no difference
[5]; Eplivanserin 15 mg single dose minus Placebo, P-value 0.4880
  Airways resistance, treatment difference LS mean: 0.02 KPa * s/l
[5]; Eplivanserin 15 mg single dose minus Placebo, P-value 0.6642
  Airways conductance, treatment difference LS mean: -0.01 1/KPa * s
[6]
  Capillary blood gases (pH, oxygen partial pressure): minimally or unaffected
[7]
  AHI (apnea hypopnea index): reduction
  LPS (latency to persistent sleep): no change
  TST (total sleep time): increase
  WASO (waketime duration after sleep onset): reduction
  number of awakenings after sleep onset: reduction
[8]
  LSEQ and Bond & Lader VAS post-treatment scores vs baseline: minimally or unaffected
[9]
  safety / tolerability: well tolerated
[9]; listed as eplivanserin
  safety / tolerability: no safety concern
[9]; oral single dose 15 mg, in comparison with placebo
  impairment of respiratory function (SaO2%, spirometry, body plethysmography): no impairment of respiratory function was observed
[10]; average value
  half-life time: 50 h
[10]; human, in vivo
  absorbed: > 70%
